Measurements reported in ChEMBL document CHEMBL1201862, “PubChem BioAssay data set” (2004).
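Test compounds were applied to cells in 96-well plates for 48 hours at 5 doses. GI50 is the concentration that inhibits growth by half.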 Activity calls are given as the source filed them. No stated cut-off is given here; in the data, active = GI50 up to about 1.1 µM and inactive = higher.

Tests used:
Assay in all cases: growth of human tumour cells (NCI), 48 h
EKVX = tested on: EKVX
HOP-62 = tested on: HOP-62
SN12C = tested on: SN12C
KM12 = tested on: KM12
SK-OV-3 = tested on: SK-OV-3
HCC 2998 = tested on: HCC 2998
LOX IMVI = tested on: LOX IMVI
MDA-N = tested on: MDA-N
HL-60 = tested on: HL-60
CAKI-1 = tested on: CAKI-1
HT-29 = tested on: HT-29
NCI/ADR-RES = tested on: NCI/ADR-RES
COLO 205 = tested on: COLO 205
SK-MEL-28 = tested on: SK-MEL-28
A549 = tested on: A549
786-0 = tested on: 786-0
M14 = tested on: M14
NCI-H460 = tested on: NCI-H460
SF-295 = tested on: SF-295
MDA-MB-231 = tested on: MDA-MB-231
SNB-75 = tested on: SNB-75
U-251 = tested on: U-251
SF-268 = tested on: SF-268
SF-539 = tested on: SF-539
OVCAR-8 = tested on: OVCAR-8
K562 = tested on: K562
TK-10 = tested on: TK-10
PC-3 = tested on: PC-3
CCRF-CEM = tested on: CCRF-CEM
ACHN = tested on: ACHN
NCI-H226 = tested on: NCI-H226
Malme-3M = tested on: Malme-3M
OVCAR-5 = tested on: OVCAR-5
NCI-H23 = tested on: NCI-H23
RPMI-8226 = tested on: RPMI-8226
DU-145 = tested on: DU-145
MCF7 = tested on: MCF7
MDA-MB-435 = tested on: MDA-MB-435
NCI-H522 = tested on: NCI-H522
SK-MEL-2 = tested on: SK-MEL-2
BT-549 = tested on: BT-549
HCT-15 = tested on: HCT-15
OVCAR-4 = tested on: OVCAR-4
OVCAR-3 = tested on: OVCAR-3
MOLT-4 = tested on: MOLT-4
SK-MEL-5 = tested on: SK-MEL-5
UACC-62 = tested on: UACC-62
UACC-257 = tested on: UACC-257
HCT-116 = tested on: HCT-116
IGROV-1 = tested on: IGROV-1
SW-620 = tested on: SW-620
SNB-19 = tested on: SNB-19
UO-31 = tested on: UO-31
A498 = tested on: A498
T47D = tested on: T47D
RXF 393 = tested on: RXF 393
SR = tested on: SR
HOP-92 = tested on: HOP-92
Hs-578T = tested on: Hs-578T

Cc1cc(S(=O)(=O)/N=C2\NCCN2Cc2ccccc2)c(S)cc1Cl
GI50 (EKVX): > 100 µM (inactive)
GI50 (HOP-62): 76.2 µM (inactive)
GI50 (SN12C): > 100 µM (inactive)
GI50 (KM12): > 100 µM (inactive)
GI50 (SK-OV-3): > 100 µM (inactive)
GI50 (HCC 2998): > 100 µM (inactive)
GI50 (LOX IMVI): > 100 µM (inactive)
GI50 (MDA-N): > 100 µM (inactive)
GI50 (HL-60): > 100 µM (inactive)
GI50 (CAKI-1): > 100 µM (inactive)
GI50 (HT-29): > 100 µM (inactive)
GI50 (NCI/ADR-RES): > 100 µM (inactive)
GI50 (COLO 205): > 100 µM (inactive)
GI50 (SK-MEL-28): > 100 µM (inactive)
GI50 (A549): > 100 µM (inactive)
GI50 (786-0): > 100 µM (inactive)
GI50 (M14): > 100 µM (inactive)
GI50 (NCI-H460): > 100 µM (inactive)
GI50 (SF-295): 81.7 µM (inactive)
GI50 (MDA-MB-231): > 100 µM (inactive)
GI50 (SNB-75): > 100 µM (inactive)
GI50 (U-251): > 100 µM (inactive)
GI50 (SF-268): 88.3 µM (inactive)
GI50 (SF-539): > 100 µM (inactive)
GI50 (OVCAR-8): > 100 µM (inactive)
GI50 (K562): > 100 µM (inactive)
GI50 (TK-10): > 100 µM (inactive)
GI50 (PC-3): > 100 µM (inactive)
GI50 (CCRF-CEM): 7.35 µM (inactive)
GI50 (ACHN): > 100 µM (inactive)
GI50 (NCI-H226): 61.2 µM (inactive)
GI50 (Malme-3M): 43.7 µM (inactive)
GI50 (OVCAR-5): > 100 µM (inactive)
GI50 (NCI-H23): > 100 µM (inactive)
GI50 (RPMI-8226): 10.5 µM (inactive)
GI50 (DU-145): > 100 µM (inactive)
GI50 (MCF7): > 100 µM (inactive)
GI50 (MDA-MB-435): > 100 µM (inactive)
GI50 (NCI-H522): 40.6 µM (inactive)
GI50 (SK-MEL-2): > 100 µM (inactive)
GI50 (BT-549): > 100 µM (inactive)
GI50 (HCT-15): > 100 µM
GI50 (OVCAR-4): > 100 µM (inactive)
GI50 (OVCAR-3): > 100 µM (inactive)
GI50 (MOLT-4): 47.2 µM (inactive)
GI50 (SK-MEL-5): > 100 µM (inactive)
GI50 (UACC-62): 72.1 µM (inactive)
GI50 (UACC-257): > 100 µM (inactive)
GI50 (HCT-116): > 100 µM (inactive)
GI50 (IGROV-1): > 100 µM (inactive)
GI50 (SW-620): > 100 µM (inactive)
GI50 (SNB-19): > 100 µM (inactive)

Oc1c2cc(Cl)cc1COCc1cc(Cl)cc(c1O)COCc1cc(Cl)cc(c1O)COC2
GI50 (EKVX): 54 µM (inactive)
GI50 (HOP-62): 19.7 µM (inactive)
GI50 (KM12): 84.3 µM (inactive)
GI50 (SK-OV-3): 59.6 µM (inactive)
GI50 (HCC 2998): > 100 µM (inactive)
GI50 (LOX IMVI): 36.7 µM (inactive)
GI50 (HL-60): 2.88 µM (inactive)
GI50 (NCI/ADR-RES): 38.8 µM (inactive)
GI50 (COLO 205): 89.5 µM (inactive)
GI50 (SK-MEL-28): > 100 µM (inactive)
GI50 (A549): 34.8 µM (inactive)
GI50 (786-0): 9.42 µM (inactive)
GI50 (M14): 18.7 µM (inactive)
GI50 (UO-31): 32.6 µM (inactive)
GI50 (NCI-H460): 22.9 µM (inactive)
GI50 (SF-295): > 100 µM (inactive)
GI50 (SNB-75): 17.8 µM (inactive)
GI50 (U-251): 29.4 µM (inactive)
GI50 (OVCAR-8): 11.8 µM (inactive)
GI50 (K562): 67.5 µM (inactive)
GI50 (TK-10): 46.8 µM (inactive)
GI50 (PC-3): > 100 µM (inactive)
GI50 (CCRF-CEM): 9.44 µM (inactive)
GI50 (ACHN): > 100 µM (inactive)
GI50 (A498): 82.8 µM (inactive)
GI50 (NCI-H226): 30.5 µM (inactive)
GI50 (OVCAR-5): 40.3 µM (inactive)
GI50 (NCI-H23): 20.8 µM (inactive)
GI50 (RPMI-8226): > 100 µM (inactive)
GI50 (DU-145): 28.2 µM (inactive)
GI50 (MCF7): 74.3 µM (inactive)
GI50 (MDA-MB-435): 40.7 µM (inactive)
GI50 (SK-MEL-2): > 100 µM (inactive)
GI50 (BT-549): 31.3 µM (inactive)
GI50 (HCT-15): 36 µM
GI50 (OVCAR-4): 23 µM (inactive)
GI50 (T47D): 15.7 µM (inactive)
GI50 (OVCAR-3): 47.2 µM (inactive)
GI50 (RXF 393): 18.3 µM (inactive)
GI50 (SK-MEL-5): > 100 µM (inactive)
GI50 (UACC-62): 56.5 µM (inactive)
GI50 (UACC-257): > 100 µM (inactive)
GI50 (HCT-116): 8.13 µM (inactive)
GI50 (IGROV-1): 17 µM (inactive)
GI50 (SR): > 100 µM (inactive)
GI50 (SW-620): > 100 µM (inactive)
GI50 (HOP-92): 6.9 µM (inactive)
GI50 (SNB-19): 28 µM (inactive)

N/C(=N\O)N/N=C/c1ccc2c(c1)OCO2
GI50 (EKVX): 8.85 µM (inactive)
GI50 (HOP-62): 26.6 µM (inactive)
GI50 (SN12C): 34.4 µM (inactive)
GI50 (KM12): 7.55 µM (inactive)
GI50 (SK-OV-3): 47.4 µM (inactive)
GI50 (Hs-578T): > 100 µM (inactive)
GI50 (HCC 2998): 35.6 µM (inactive)
GI50 (LOX IMVI): 17.4 µM (inactive)
GI50 (MDA-N): 36.5 µM (inactive)
GI50 (HL-60): 18.2 µM (inactive)
GI50 (CAKI-1): 30.3 µM (inactive)
GI50 (HT-29): 36.1 µM (inactive)
GI50 (NCI/ADR-RES): 6.75 µM (inactive)
GI50 (COLO 205): 4.74 µM (inactive)
GI50 (SK-MEL-28): 46 µM (inactive)
GI50 (A549): 14.7 µM (inactive)
GI50 (786-0): 12.9 µM (inactive)
GI50 (M14): 13.5 µM (inactive)
GI50 (NCI-H460): 27 µM (inactive)
GI50 (SF-295): 33.9 µM (inactive)
GI50 (MDA-MB-231): 38.5 µM (inactive)
GI50 (U-251): 36.6 µM (inactive)
GI50 (SF-268): 13.9 µM (inactive)
GI50 (SF-539): 27.7 µM (inactive)
GI50 (OVCAR-8): 12.5 µM (inactive)
GI50 (K562): 18.5 µM (inactive)
GI50 (TK-10): 55 µM (inactive)
GI50 (PC-3): 26.2 µM (inactive)
GI50 (CCRF-CEM): 19.4 µM (inactive)
GI50 (ACHN): 20 µM (inactive)
GI50 (A498): 21 µM (inactive)
GI50 (NCI-H226): 10.8 µM (inactive)
GI50 (Malme-3M): 17.5 µM (inactive)
GI50 (OVCAR-5): 24.7 µM (inactive)
GI50 (NCI-H23): 27 µM (inactive)
GI50 (RPMI-8226): 21.2 µM (inactive)
GI50 (DU-145): 7.16 µM (inactive)
GI50 (MCF7): 28.6 µM (inactive)
GI50 (MDA-MB-435): 31.4 µM (inactive)
GI50 (NCI-H522): 38.5 µM (inactive)
GI50 (SK-MEL-2): 22 µM (inactive)
GI50 (HCT-15): 22 µM
GI50 (OVCAR-4): 26.4 µM (inactive)
GI50 (T47D): 46 µM (inactive)
GI50 (OVCAR-3): 14.2 µM (inactive)
GI50 (RXF 393): 29 µM (inactive)
GI50 (MOLT-4): 24.8 µM (inactive)
GI50 (SK-MEL-5): 15.4 µM (inactive)
GI50 (UACC-62): 13.5 µM (inactive)
GI50 (UACC-257): 39.5 µM (inactive)
GI50 (HCT-116): 21.1 µM (inactive)
GI50 (IGROV-1): 25 µM (inactive)
GI50 (SR): 7.87 µM (inactive)
GI50 (SW-620): 63.4 µM (inactive)
GI50 (HOP-92): 20.8 µM (inactive)
GI50 (SNB-19): 62.7 µM (inactive)
